Source: patent US20240300902A1, “NOVEL TRANSGLUTAMINASE 2 INHIBITOR AND USE THEREOF” (MD BIOLAB CO., LTD., priority 2021, published 2024)

How the values were obtained:
[1] = system: MDA-MB231 breast cancer cells; test: Antitumor effects in in vivo breast cancerous tumors, MDA-MB231 xenograft; design: species or system mice
Method: To examine the antitumor effect of LDD3959, CanN.Cg-Foxn1nu/CrljOri mice were used as experimental animals. The mice were xenografted with MDA-MB231 breast cancer cells to induce tumors. The MDA-MB231 breast cancer cell-transplanted group was divided into two groups: an oral administration group and an intraperitoneal administration group. In this test, the oral administration was performed daily and the intraperitoneal administration was performed twice a week.

[2] = Toxicity by 3-week DRF oral administration; format: in vivo, ICR mice; details: once a day for 3 weeks, 500 to 2000 mg/kg
Method: LDD3959 was administered once a day for 3 weeks at each concentration (in the range of 500 to 2000 mg/kg), adverse events during the course of administration were checked, and the subjects were sacrificed the next day after the end of administration to perform weight measurement, hematological analysis, and biochemical analysis for each organ. In addition, the same experiment was performed on five ICR female mice and five ICR male mice to identify gender-dependent differences.

[3] = system: MDA-MB231 cells; test: Cell viability in breast cancer cell lines according to concentration; format: cell-based
Method: First breast cancer cells (MDA-MB-453, HCC-1806, HCC-1937: 10,000 cells/well, 100 μl) and second breast cancer cells (MDA-MB-231, MCF-7: 10,000 cells/well, 100 μl) were cultured in 96-well microplates.
After 24 hours, LDD3959 […] of various concentrations were added to each well, using a serum-free cell culture medium, and a reaction was allowed to proceed for 2 hours at 37° C. in the presence of 5% CO2. The culture medium was replaced with a culture medium containing 10% FSB, and a reaction was performed for 72 hours.
The existing culture medium was removed, and a new culture medium containing a water soluble tetrazolium salt was added. After that, the plate underwent a reaction at 37° C. in the presence of 5% CO2 for a duration in the range of 1 hour to 3 hours, and then absorbance was measured at 450 nm.

## O=C1C(Cl)=C(Cl)C(=O)c2[nH]c(-c3ccc(Br)c(F)c3)nc21 [LDD3959, 2-(4-bromo-3-fluorophenyl)-5,6-dichloro-1H-benzo[d]imidazole-4,7-dione]
[1]; intraperitoneal administration twice a week
  antitumor effect: concentration-dependent antitumor effects
[1]; oral administration daily
  antitumor effect: concentration-dependent antitumor effects
[2]
  adverse events: no specific adverse events occurred
  hematological and biochemical tests: no probable adverse events
[2]; female and male ICR mice
  deaths: no deaths of the subjects occurred
[3]; MDA-MB231, highest expression level of transglutaminase 2, 72 hours
  effective concentration for apoptosis: the effective concentration was lowest, and the efficacy was best
[3]; breast cancer cell lines
  acting concentration compared with conventional transglutaminase 2 inhibitors: lower concentrations than conventional transglutaminase 2 inhibitors
